Assay results taken from US20220144826A1, “Heteroaromatic and Heterobicyclic Aromatic Derivatives for the Treatment of Ferroptosis-Related Disorders” (COLLABORATIVE MEDICINAL DEVELOPMENT, LLC, priority 2019, published 2022).

Test system: N27 rat dopaminergic neural cells
Experiment: MTT assay in N27 rat dopaminergic neural cells: inhibition of RSL3-induced cell death (ferroptosis)
Format: cell-based
Settings: Rattus norvegicus, N27, 24 h, ferroptosis induced by 0.5 μM RSL3, 24 hours, viability by MTT
Experimental: MTT Assay in N27 Rat Dopaminergic Neural Cells
N27 rat dopaminergic neural cells (Millipore, SCC048) were cultured in RPMI-1640 media (Wisent, 350-000) supplemented with 1×GlutaMAX (Gibco, 35050-061), 10% FBS (embryonic stem cell qualified; Wisent, 920-040), and 1× Penicillin-Streptomycin (Wisent, 450-201). Cells were grown in humidified tissue culture incubator at 37° C. with 5% CO2, for up to 10 passages. To evaluate the ability of test compounds to inhibit RSL3-induced cell death, N27 cells were seeded in clear 96-well tissue culture plates (Sarstedt, 83.3924) at a density of 15,000 cells/well. On the next day, the medium was changed to fresh complete RPMI-1640. Eight-point dilution series of test compounds were added to the cells. Then, ferroptosis was induced by addition of 0.5 μM RSL3 (vehicle-treated cells served as control). Ferrostatin-1 (Fer-1) was included in each assay as control inhibitor of ferroptosis. Plates were incubated for 24 hours at 37° C. in a tissue culture incubator, then cell viability was determined by MTT assay. Briefly, Thiazolyl Blue Tetrazolium Bromide [3-(4,5-dimethylthiazol-2-yl)-2,5-diphenyltetrazolium bromide or “MTT” ] (Sigma) stock solution (5 mg/mL in PBS, sterilized by filtration) was diluted 1:1 with complete growth medium, and added on the cells to a final concentration of 0.5 mg/mL. Cells were incubated with MTT for 4 hours at 37° C., protected from light, in a humidified, 5% CO2 atmosphere. Medium was then completely removed from the wells by gentle aspiration and converted MTT formazan crystals were dissolved in 150 μL of DMSO. Absorbance of converted dye was measured at 595 nm with background subtraction at 690 nm using the BioTek Cytation5 Microplate Reader. Blank reading (absorbance from wells containing media and vehicle only, no cells) was removed from all sample wells. Viability was calculated as a percentage of control cells (vehicle-treated cells were set as 100% viability). Dose-response curves were drawn and IC50 values were calculated using GraphPad Prism software, version 7.

SMILES | IC50 | IC50 (cell unit uM)
CCC(C)Nc1ccc(-c2ccncc2)nc1NC1CCCC1 (centres unmarked) [Compound H-76, N^2-cyclopentyl-6-(4-pyridyl)-N^3-sec-butyl-pyridine-2,3-diamine] | 6 nM | –
c1cc(-c2ccc(NC3COC3)c(NC3CCCC3)n2)ccn1 [Compound H-77, N^2-cyclopentyl-N^3-(oxetan-3-yl)-6-(4-pyridyl)pyridine-2,3-diamine] | 13 nM | –
CCC(C)Nc1ccc(-c2cncnc2)nc1NC1CCCC1 (centres unmarked) [Compound H-80, N^2-cyclopentyl-6-pyrimidin-5-yl-N^3-sec-butyl-pyridine-2,3-diamine] | 7 nM | –
Cc1ccc(-c2ccc(NC3COC3)c(NC3CCCC3)n2)cc1 [Compound H-81, N^2-cyclopentyl-N^3-(oxetan-3-yl)-6-(p-tolyl)pyridine-2,3-diamine] | 5 nM | –
c1ncc(-c2ccc(NC3COC3)c(NC3CCCC3)n2)cn1 [Compound H-84, N^2-cyclopentyl-N^3-(oxetan-3-yl)-6-pyrimidin-5-yl-pyridine-2,3-diamine] | 32 nM | –
CCC(C)Nc1ccc(-c2ccc(OC)cc2)nc1NC1CCCC1 (centres unmarked) [Compound H-86, N^2-cyclopentyl-6-(4-methoxyphenyl)-N^3-sec-butyl-pyridine-2,3-diamine] | 8 nM | –
COc1ccc(-c2ccc(NC3COC3)c(NC3CCCC3)n2)cc1 [Compound H-87, N^2-cyclopentyl-6-(4-methoxyphenyl)-N^3-(oxetan-3-yl)pyridine-2,3-diamine] | 3 nM | –
CCOC(=O)c1cc(N)c2c(c1)OCCN2 [Compound I-85] | > 1000 nM | –
Clc1nc2c(c(NC3CCCC3)n1)NCCC2 [Compound J-84] | 273 nM | –
CNC(=O)c1nc(-c2ccc(C)cc2)nc2c1NC(C)(C)N2C1CCCC1 [Compound K-34] | – | > 10000 nM
Cc1ccc(-c2nc(NC3CCCC3)c3c(n2)C(=O)N(C)C(C)(C)N3)cc1 [Compound K-36, 8-(cyclopentylamino)-2,2,3-trimethyl-6-(p-tolyl)-1H-pyrimido[5,4-d]pyrimidin-4-one] | 525 nM | –
CCC(C)Nc1ccc(C(F)(F)F)nc1NC1CCCC1 (centres unmarked) [Compound K-65, N^2-cyclopentyl-N^3-sec-butyl-6-(trifluoromethyl)pyridine-2,3-diamine] | 45 nM | –
CC1(Nc2nc(C(F)(F)F)ccc2NC2CCOC2)CCOC1 (centres unmarked) [Compound K-67, N^2-(3-methyltetrahydrofuran-3-yl)-N^3-tetrahydrofuran-3-yl-6-(trifluoromethyl)pyridine-2,3-diamine] | 355 nM | –
CCC(C)Nc1ccc(-c2ccc(C)cc2)nc1NC(C)(C)C [Compound L-02, N^2-tert-butyl-6-(p-tolyl)-N^3-sec-butyl-pyridine-2,3-diamine] | 5 nM | –
Cc1ccc(-c2ccc(NC(C)(C)C)c(NC(C)(C)C)n2)cc1 [Compound L-03, N^2,N^3-di-tert-butyl-6-(p-tolyl)pyridine-2,3-diamine] | 14 nM | –
CC(C)(C)Nc1ccc(-c2ccncc2)nc1NC1CCCC1 [Compound L-04, N^3-tert-butyl-N^2-cyclopentyl-6-(4-pyridyl)pyridine-2,3-diamine] | 5 nM | –
CCC(C)Nc1ccc(-c2ccccn2)nc1NC1(C)CCOC1 [Compound L-22, N^2-(3-methyltetrahydrofuran-3-yl)-6-(2-pyridyl)-N^3-sec-butyl-pyridine-2,3-diamine] | 14 nM | –
CC1(Nc2nc(-c3ccccn3)ccc2NC2CCOC2)CCOC1 [Compound L-23, N^2-(3-methyltetrahydrofuran-3-yl)-6-(2-pyridyl)-N^3-tetrahydrofuran-3-yl-pyridine-2,3-diamine] | 141 nM | –
CCCC(=O)c1ccc(NC(C)CC)c(NC2CCCC2)n1 [Compound L-34, 1-[6-(cyclopentylamino)-5-(sec-butylamino)-2-pyridyl]butan-1-one] | 21 nM | –

SMILES | IC50 | IC50 (cell unit uM)
CC1(Nc2nc(-c3cccnc3)ccc2NC2CCOC2)CCOC1 [Compound L-42, N^2-(3-methyltetrahydrofuran-3-yl)-6-(3-pyridyl)-N^3-tetrahydrofuran-3-yl-pyridine-2,3-diamine] | 285 nM | –
CC1(Nc2nc(-c3ccc(F)cc3)nc3c2NCCC3)CCOC1 (centres unmarked) [Compound M-14, 2-(4-fluorophenyl)-N-(3-methyltetrahydrofuran-3-yl)-5,6,7,8-tetrahydropyrido[3,2-d]pyrimidin-4-amine] | 29 nM | –
CC1(Nc2nc(-c3ccc(F)cc3)ccc2NC2CCOC2)CCOC1 (centres unmarked) [Compound M-23, 6-(4-fluorophenyl)-N^2-(3-methyltetrahydrofuran-3-yl)-N^3-tetrahydrofuran-3-yl-pyridine-2,3-diamine] | 3 to 6 nM | –
CC1(Nc2nc(-c3ccc(F)cc3)ccc2NC2CCOCC2)CCOC1 (centres unmarked) [Compound N-53, 6-(4-fluorophenyl)-N^2-(3-methyltetrahydrofuran-3-yl)-N^3-tetrahydropyran-4-yl-pyridine-2,3-diamine] | 1 nM | –
CCC(C)Nc1ccc(-c2ccncc2)nc1NC(C)(C)C (centres unmarked) [Compound P-22] | 1 nM | –
CCCC(=O)c1ccc(N)c(NC2CC(F)(F)C2)n1 [Compound P-46, 1-[5-amino-6-[(3,3-difluorocyclobutyl)amino]-2-pyridyl]butan-1-one] | 498 nM | –
CCCC(=O)c1ccc(NC2CC(F)(F)C2)c(NC2CC(F)(F)C2)n1 [Compound P-47, 1-[5,6-bis[(3,3-difluorocyclobutyl)amino]-2-pyridyl]butan-1-one] | 201 nM | –
CN(C)C(=O)c1ccc(-c2ccc(NC3CCC3)c(NC3(C)CCOC3)n2)cc1 (centres unmarked) [Compound P-53, 4-[5-(cyclobutylamino)-6-[(3-methyltetrahydrofuran-3-yl)amino]-2-pyridyl]-N,N-dimethyl-benzamide] | 24 nM | –
CC1(Nc2nc(-c3ccc(F)cc3)ccc2NC2CCC2)CCOC1 (centres unmarked) [Compound P-54, N^3-cyclobutyl-6-(4-fluorophenyl)-N^2-(3-methyltetrahydrofuran-3-yl)pyridine-2,3-diamine] | 3 nM | –
CC1(Nc2nc(-c3ccncc3)nc3c2NCCC3)CCOC1 (centres unmarked) [Compound P-71, N-(3-methyltetrahydrofuran-3-yl)-2-(4-pyridyl)-5,6,7,8-tetrahydropyrido[3,2-d]pyrimidin-4-amine] | 463 nM | –
CCCCC(=O)c1cc2c(c(NC3CCOC3)c1)NCCC2 (centres unmarked) [Compound Q-879, 1-[8-(tetrahydrofuran-3-ylamino)-1,2,3,4-tetrahydroquinolin-6-yl]pentan-1-one] | 16.8 nM | –
CC1=Nc2cc(C#N)ccc2NC1(C)C [Compound Q-912, 2,2,3-trimethyl-1H-quinoxaline-6-carbonitrile] | > 3000 nM | –
CCCCC(=O)c1cc2c(c(-c3ccncc3)c1)NCCC2 [Compound Q-950, 1-[8-(4-pyridyl)-1,2,3,4-tetrahydroquinolin-6-yl]pentan-1-one] | > 3000 nM | –
CCCCC(=O)c1cc2c(c(N3CCCC3=O)c1)NCCC2 [Compound Q-979, 1-(6-pentanoyl-1,2,3,4-tetrahydroquinolin-8-yl)pyrrolidin-2-one] | 1150 nM | –
CCCCC(=O)c1cc2c(c(OC3CCCC3)c1)NCCC2 [Compound Q-980, 1-[8-(cyclopentoxy)-1,2,3,4-tetrahydroquinolin-6-yl]pentan-1-one] | > 3000 nM | –
CCCCC(O)c1cc2c(c(NC(C)(C)C)n1)NCC(C(F)(F)F)C2 (centres unmarked) [Compound R-812, 1-[8-(tert-butylamino)-3-(trifluoromethyl)-1,2,3,4-tetrahydro-1,7-naphthyridin-6-yl]pentan-1-ol] | 40 nM | –
CCCCC(=O)c1cc2c(c(NC(C)(C)C)n1)NCC(C(F)(F)F)C2 (centres unmarked) [Compound R-830] | 36 nM | –
CC(C)(C)Nc1nc(OCC(F)(F)F)cc2c1NCC(C(F)(F)F)C2 (centres unmarked) [Compound S-101, N-tert-butyl-6-(2,2,2-trifluoroethoxy)-3-(trifluoromethyl)-1,2,3,4-tetrahydro-1,7-naphthyridin-8-amine] | 1260 nM | –
CCCCC(=O)c1cc2c(c(NC(C)(C)C)n1)NCCC2 [Compound S-168, 1-[8-(tert-butylamino)-1,2,3,4-tetrahydro-1,7-naphthyridin-6-yl]pentan-1-one] | 13 nM | –
